According to patent US7914821B2, “Pharmaceutical composition for prevention and/or treatment of bone loss” (KO DA Pharmaceuticals Co., Ltd., priority 2008, dated 2011):

Assays:
Format in all cases: cell-based, rat
[1] = test system: EPK protein; experiment: Effect of ERK inhibitor on induced phosphorylation of EPK protein; conditions: inhibitor for 30 minutes before imperatorin and bergapten; FIGS. 11A-11B
Procedure: Bone cells was cultured in 6-well plate and treated with 10 μM of imperatorin and bergapten for 1, 3, 6, 12, and 24 hrs, respectively. After treatment, the culture medium was replaced with a lysis buffer containing 50 mM HEPES (PH 7.4), 150 mM NaCl, 4 mM EDTA, 10 mM Na4P2O7, 100 mM NaF, 2 mM Na3VO4, 1% (v/v) Triton X-100, 0.25% (w/v) sodium deoxycholate, 50 mM 4-(2-aminoethyl)benzene sulfonylfluoride, 50 μg/ml leupeptin, and 20 μg/ml aprotinin, and then centrifuged at 13000 rpm for 15 minutes to obtain the protein pellets. 30 μg of proteins were dissolved in 5× Laemmli buffer, boiled at 95° C. for 5 minutes, and then subjected to SDS-PAGE gel (8%) electrophoresis. Proteins on the gel were then transferred to a PVDF membrane. The PVDF membrane was blocked in 4% BSA solution for 1 hour at room temperature. The blocked membrane was then incubated in PBST buffer (0.1% Tween-20) containing p-SMAD, p-ERK, or p38 primary antibody. Following incubation with primary antibody, the membrane was washed three times with PBST, and then incubated for 1 hr at room temperature with the secondary antibody, an anti-mouse or anti-goat IgG labeled with horseradish peroxidase. Following incubation with the secondary antibody, the membrane was washed three times with PBST, and detected by an […] chemiluminescence using an ECL blotting substrate according to the manufacturer's instructions. […]

[2] = test system: Bone cells; experiment: Effect of p38 and ERK inhibitors on ALP activity in bone cells; conditions: 10 μM inhibitor with 10 μM imperatorin or bergapten, 48 hrs; FIG. 11C
Procedure: (§1) Rat primary osteoblast was isolated from the parietal bone of gestation day 18 embryos of Sprague-Dawley rats. After being slaughtered, the embryo rats were obtained from the uteruses of the rats, and calvarium was isolated from the embryo rats. Parietal bone was cut from the calvarium and digested by 0.1% collagenase for 20 minutes to release the bone cells from the bone tissue. The digestion step was repeated five times. The collected bone cells were cultured in α-MEM containing 1% penicillin-streptomycin and 10% FBS in a humidified atmosphere of 5 percent carbon dioxide. When cells were attached and confluence, they were sub-cultured, which was called “passage 2 (P2)”. The passage was for analogizing. 2 to 5 passage cells were used for the experiments.
Bone cells were cultured and treated with (1) 10 μM SB203580, (2) 10 μM PD98059, (3) 10 μM imperatori, (4) 10 μM bergapten, (5) 10 μM imperatorin+SB203580, (6) 10 μM bergapten+SB203580, (7) 10 μM imperatorin+PD98059 ? (8) 10 μM bergapten+PD98059 for 48 hrs. After treatment, the bone cells were lysed in 0.2% […] solution and centrifuged at 1500×g for 5 minutes. The supernatant was analyzed by an ALP kit such as described above to obtain the ALP activity. The ALP activity in the control group which was treated with 0.1% DMSO was defined as 100%. […]

[3] = test system: p38; experiment: Effect of p38 inhibitor on induced phosphorylation of p38; conditions: inhibitor for 30 minutes before imperatorin and bergapten; FIGS. 11A-11B
Procedure: Bone cells was cultured in 6-well plate and treated with 10 μM of imperatorin and bergapten for 1, 3, 6, 12, and 24 hrs, respectively. […] 30 μg of proteins were dissolved in 5× Laemmli buffer, boiled at 95° C. for 5 minutes, and then subjected to SDS-PAGE gel (8%) electrophoresis. Proteins on the gel were then transferred to a PVDF membrane. The PVDF membrane was blocked in 4% BSA solution for 1 hour at room temperature. The blocked membrane was then incubated in PBST buffer (0.1% Tween-20) containing p-SMAD, p-ERK, or p38 primary antibody. Following incubation with primary antibody, the membrane was washed three times with PBST, and then incubated for 1 hr at room temperature with the secondary antibody, an anti-mouse or anti-goat IgG labeled with horseradish peroxidase. Following incubation with the secondary antibody, the membrane was washed three times with PBST, and detected by an enzyme-linked chemiluminescence using an ECL blotting substrate according to the manufacturer's instructions.
In the control group, a non-phosphorylation p38 and non-phosphorylation EPK proteins were subjected to SDS-PAGE gel electrophoresis.

[4] = test system: Bone cells; experiment: ALP activity with imperatorin, bergapten and noggin; conditions: 1 μg/ml noggin with 10 μM imperatorin or 10 μM bergapten, 48 hrs; FIG. 9C
Procedure: as §1
Bone cells were treated with (1) 10 μM imperatorin, (2) 10 μM bergapten, (3) 10 μM imperatorin+noggin, (4) 10 μM bergapten+noggin, and (5) 1 μg/ml noggin for 48 his, respectively. After treatment, the bone cells were lysed in 0.2% […] solution, and then centrifuged at 1500×g for 5 minutes to obtain a supernatant. The supernatant was analyzed by ALP kit as described above to obtain the ALP activity. The ALP activity in the control group which was treated with 0.1% DMSO was defined as 100%. Referring to FIG. 9C, noggin suppressed the imperatorin or bergapten induced-ALP activity.

Molecule | imperatorin and bergapten induced-phosphorylation (EPK protein) [1] | imperatorin and bergapten induced-ALP activity [2] | imperatorin and bergapten induced-phosphorylation (p38) [3] | imperatorin or bergapten induced-ALP activity [4]
COc1cccc(-c2cc(=O)c3ccccc3o2)c1N [PD98059] | suppressed | suppressed | – | –
C[S+]([O-])c1ccc(-c2nc(-c3ccncc3)c(-c3ccc(F)cc3)[nH]2)cc1 (centres unmarked) [SB203580] | – | suppressed | suppressed | –
noggin: noggin, 1 μg/ml, suppressed the imperatorin or bergapten induced-ALP activity (protein, UniProt Q13253 28-232, looked up) Noggin: QHYLHIRPAPSDNLPLVDLIEHPDPIFDPKEKDLNETLLRSLLGGHYDPGFMATSPPEDRPGGGGGAAGGAEDLAELDQLLRQRPSGAMPSEIKGLEFSEGLAQGKKQRLSKKLRRKLQMWLWSQTFCPVLYAWNDLGSRFWPRYVKVGSCFSKRSCSVPEGMVCKPSKSVHLTVLRWRCQRRGGQRCGWIPIQYPIISECKCSC | – | – | – | suppressed
